{
  "source": "patent US20240100069A1",
  "about": "“Methods and Compositions for Treating Amyotrophic Lateral Sclerosis” (Amylyx Pharmaceuticals, Inc., priority 2022, published 2024)",
  "origin": "cited, not measured here",
  "key": {"[1]": {"tested_on": "G393A SODI mouse model of ALS"}, "CYP 1A2": {"target": "T1, CYP 1A2 (Homo sapiens, UniProt P05177)", "T1 sequence (P05177 1-516)": "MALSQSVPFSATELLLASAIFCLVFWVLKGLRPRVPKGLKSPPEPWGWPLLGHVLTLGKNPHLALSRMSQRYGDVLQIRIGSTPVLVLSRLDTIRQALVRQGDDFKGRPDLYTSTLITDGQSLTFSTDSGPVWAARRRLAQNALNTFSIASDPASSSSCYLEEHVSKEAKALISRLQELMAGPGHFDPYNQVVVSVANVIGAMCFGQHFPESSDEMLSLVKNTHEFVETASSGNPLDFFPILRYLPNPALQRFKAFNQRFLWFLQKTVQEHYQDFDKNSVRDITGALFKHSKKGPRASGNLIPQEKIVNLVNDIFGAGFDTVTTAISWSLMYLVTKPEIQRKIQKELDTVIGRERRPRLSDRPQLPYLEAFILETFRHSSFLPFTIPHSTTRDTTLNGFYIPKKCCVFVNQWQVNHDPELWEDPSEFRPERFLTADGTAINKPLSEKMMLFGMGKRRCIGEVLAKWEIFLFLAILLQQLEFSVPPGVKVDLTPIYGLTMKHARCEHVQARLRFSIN", "conditions": "at 20 times the intended clinical concentration (Cmax)"}, "CYP 2D6": {"target": "CYP 2D6 (Homo sapiens, UniProt P10635)", "sequence (P10635 whole entry)": "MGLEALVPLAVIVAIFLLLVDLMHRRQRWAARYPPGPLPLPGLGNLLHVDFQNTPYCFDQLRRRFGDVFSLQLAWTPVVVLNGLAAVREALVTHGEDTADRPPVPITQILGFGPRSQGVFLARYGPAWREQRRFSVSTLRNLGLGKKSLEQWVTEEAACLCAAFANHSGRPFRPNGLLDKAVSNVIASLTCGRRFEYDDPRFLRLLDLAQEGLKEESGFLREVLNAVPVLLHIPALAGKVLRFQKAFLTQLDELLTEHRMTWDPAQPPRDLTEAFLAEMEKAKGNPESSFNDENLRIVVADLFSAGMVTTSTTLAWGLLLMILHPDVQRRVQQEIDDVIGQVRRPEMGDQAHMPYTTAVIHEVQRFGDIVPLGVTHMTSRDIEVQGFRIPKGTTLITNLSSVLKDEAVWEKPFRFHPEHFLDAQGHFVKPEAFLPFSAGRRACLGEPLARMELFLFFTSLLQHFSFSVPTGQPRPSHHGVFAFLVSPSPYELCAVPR", "conditions": "at 20 times the intended clinical concentration (Cmax)"}, "[2]": {"conditions": "in vivo"}},
  "data": [
    {"compound": "O=C(O)CCCc1ccccc1", "note": "[Phenylbutyrate, sodium phenylbutyrate]", "values": [
      {"measurement": "survival in in vivo models", "setting": "[1]", "value": "increase survival"}
    ]},
    {"compound": "Phenylacetylacetate", "values": [
      {"measurement": "inhibition of CYP 1A2", "setting": "CYP 1A2", "value": "inhibitory"},
      {"measurement": "inhibition of CYP 2D6", "setting": "CYP 2D6", "value": "inhibitory"}
    ]},
    {"compound": "C[C@H](CCC(=O)NCCS(=O)(=O)O)[C@H]1CC[C@H]2[C@@H]3[C@@H](O)C[C@@H]4C[C@H](O)CC[C@]4(C)[C@H]3CC[C@]12C", "note": "[TURSO, tauroursodeoxycholic acid]", "values": [
      {"measurement": "most common adverse reactions reported (abdominal discomfort, abdominal pain, diarrhea, nausea, pruritus, rash), frequency", "setting": "[2]", "value": "≥ 1", "unit": "%"}
    ]}
  ]
}
